From ChEMBL document CHEMBL1201862, “PubChem BioAssay data set” (2004)
The source made the active and inactive calls.

What was measured:
[1] = target: T1, Tyrosine-protein phosphatase non-receptor type 22 (Homo sapiens, UniProt Q9Y2R2); assay type: functional
T1 sequence (Q9Y2R2 whole entry): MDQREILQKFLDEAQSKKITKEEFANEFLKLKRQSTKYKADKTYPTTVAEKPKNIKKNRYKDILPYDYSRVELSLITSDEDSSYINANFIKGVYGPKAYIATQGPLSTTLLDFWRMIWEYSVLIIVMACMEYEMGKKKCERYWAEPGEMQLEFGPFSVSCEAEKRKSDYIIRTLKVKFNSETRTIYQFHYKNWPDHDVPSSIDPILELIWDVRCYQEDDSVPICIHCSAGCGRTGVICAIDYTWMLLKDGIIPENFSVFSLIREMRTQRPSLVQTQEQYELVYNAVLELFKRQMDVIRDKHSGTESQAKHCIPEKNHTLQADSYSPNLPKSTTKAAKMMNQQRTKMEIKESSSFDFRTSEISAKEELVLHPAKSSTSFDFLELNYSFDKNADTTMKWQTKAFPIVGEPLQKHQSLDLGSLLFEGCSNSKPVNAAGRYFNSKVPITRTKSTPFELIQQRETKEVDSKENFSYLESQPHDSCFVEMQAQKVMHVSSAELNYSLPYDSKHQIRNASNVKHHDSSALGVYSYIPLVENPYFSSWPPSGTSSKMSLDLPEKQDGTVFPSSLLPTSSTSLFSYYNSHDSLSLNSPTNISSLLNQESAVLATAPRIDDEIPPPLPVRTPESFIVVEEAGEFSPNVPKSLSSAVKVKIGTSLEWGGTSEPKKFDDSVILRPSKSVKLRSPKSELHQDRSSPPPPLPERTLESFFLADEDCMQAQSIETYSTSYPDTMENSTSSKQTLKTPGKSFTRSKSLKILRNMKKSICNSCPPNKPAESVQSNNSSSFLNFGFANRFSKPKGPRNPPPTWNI

[2] = target: T1, Tyrosine-protein phosphatase non-receptor type 22; assay type: functional; remark: listed apart in the source
[3] = target: T2, Tyrosine-protein phosphatase non-receptor type 7 (Homo sapiens, UniProt P35236); assay type: functional
T2 sequence (P35236 whole entry): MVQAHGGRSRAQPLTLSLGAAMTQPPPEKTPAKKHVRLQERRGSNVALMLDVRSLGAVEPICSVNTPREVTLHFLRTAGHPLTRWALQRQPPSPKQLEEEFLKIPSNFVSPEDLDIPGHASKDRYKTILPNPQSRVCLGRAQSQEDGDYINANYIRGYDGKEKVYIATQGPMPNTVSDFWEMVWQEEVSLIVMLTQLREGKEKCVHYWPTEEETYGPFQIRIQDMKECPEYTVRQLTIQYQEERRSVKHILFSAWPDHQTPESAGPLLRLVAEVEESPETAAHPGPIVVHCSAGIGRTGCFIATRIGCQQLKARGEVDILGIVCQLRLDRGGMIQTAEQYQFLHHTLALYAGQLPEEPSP

[4] = target: T3, Exodeoxyribonuclease V (Escherichia coli (strain K12), UniProt P04993+P07648+P08394); assay: RecBCD inhibition via phage-restricted bacterial growth – absorbance, V66 E. coli, mutant T4 phage, counter-screen for AddAB inhibitor project, dose response (AID 492957); assay type: functional, cell-based, Escherichia coli str. K-12 substr. MG1655
T3 sequence (P04993 whole entry): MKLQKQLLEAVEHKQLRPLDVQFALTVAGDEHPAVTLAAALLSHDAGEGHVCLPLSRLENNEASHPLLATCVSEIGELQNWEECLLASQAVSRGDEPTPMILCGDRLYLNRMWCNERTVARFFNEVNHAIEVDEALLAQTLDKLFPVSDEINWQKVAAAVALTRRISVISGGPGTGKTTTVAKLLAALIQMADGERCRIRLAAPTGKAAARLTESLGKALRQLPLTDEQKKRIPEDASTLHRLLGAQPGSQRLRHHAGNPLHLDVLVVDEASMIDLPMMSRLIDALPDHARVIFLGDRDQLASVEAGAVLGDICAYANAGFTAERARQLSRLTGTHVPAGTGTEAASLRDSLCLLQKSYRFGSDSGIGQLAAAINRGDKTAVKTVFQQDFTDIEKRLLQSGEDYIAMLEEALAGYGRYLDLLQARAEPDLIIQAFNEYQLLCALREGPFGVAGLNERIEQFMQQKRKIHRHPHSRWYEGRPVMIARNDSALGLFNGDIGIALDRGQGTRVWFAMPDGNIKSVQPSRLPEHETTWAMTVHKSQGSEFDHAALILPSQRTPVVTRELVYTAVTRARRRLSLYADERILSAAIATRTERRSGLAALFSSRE
T3 sequence (P07648 whole entry): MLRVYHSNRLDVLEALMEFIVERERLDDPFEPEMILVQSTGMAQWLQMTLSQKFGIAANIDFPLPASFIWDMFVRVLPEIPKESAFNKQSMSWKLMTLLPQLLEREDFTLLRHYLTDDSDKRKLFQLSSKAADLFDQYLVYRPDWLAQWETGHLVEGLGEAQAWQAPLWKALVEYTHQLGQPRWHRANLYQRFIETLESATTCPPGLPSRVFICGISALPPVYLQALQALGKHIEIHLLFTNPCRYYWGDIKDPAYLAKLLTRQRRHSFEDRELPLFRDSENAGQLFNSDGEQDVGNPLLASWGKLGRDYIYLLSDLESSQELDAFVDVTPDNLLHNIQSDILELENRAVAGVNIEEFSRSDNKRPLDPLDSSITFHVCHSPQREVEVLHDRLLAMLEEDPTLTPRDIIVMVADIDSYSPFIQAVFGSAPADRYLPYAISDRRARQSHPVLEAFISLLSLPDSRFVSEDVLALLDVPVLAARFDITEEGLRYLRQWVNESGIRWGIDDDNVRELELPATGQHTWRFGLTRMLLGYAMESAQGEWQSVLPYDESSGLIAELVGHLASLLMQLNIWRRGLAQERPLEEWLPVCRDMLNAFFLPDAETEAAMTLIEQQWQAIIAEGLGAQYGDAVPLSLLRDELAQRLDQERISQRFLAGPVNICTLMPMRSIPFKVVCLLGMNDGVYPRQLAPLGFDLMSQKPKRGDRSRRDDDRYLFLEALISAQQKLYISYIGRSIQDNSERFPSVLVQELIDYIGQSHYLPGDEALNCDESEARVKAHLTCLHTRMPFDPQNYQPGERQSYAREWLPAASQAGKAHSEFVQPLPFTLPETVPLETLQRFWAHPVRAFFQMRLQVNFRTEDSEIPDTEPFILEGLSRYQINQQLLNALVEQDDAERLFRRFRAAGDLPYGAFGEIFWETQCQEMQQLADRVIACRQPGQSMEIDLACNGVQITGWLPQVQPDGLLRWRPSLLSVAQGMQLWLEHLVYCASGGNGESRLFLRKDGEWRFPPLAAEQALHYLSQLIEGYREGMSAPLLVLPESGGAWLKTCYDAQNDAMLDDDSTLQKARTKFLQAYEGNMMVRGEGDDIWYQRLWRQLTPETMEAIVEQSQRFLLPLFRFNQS
T3 sequence (P08394 whole entry): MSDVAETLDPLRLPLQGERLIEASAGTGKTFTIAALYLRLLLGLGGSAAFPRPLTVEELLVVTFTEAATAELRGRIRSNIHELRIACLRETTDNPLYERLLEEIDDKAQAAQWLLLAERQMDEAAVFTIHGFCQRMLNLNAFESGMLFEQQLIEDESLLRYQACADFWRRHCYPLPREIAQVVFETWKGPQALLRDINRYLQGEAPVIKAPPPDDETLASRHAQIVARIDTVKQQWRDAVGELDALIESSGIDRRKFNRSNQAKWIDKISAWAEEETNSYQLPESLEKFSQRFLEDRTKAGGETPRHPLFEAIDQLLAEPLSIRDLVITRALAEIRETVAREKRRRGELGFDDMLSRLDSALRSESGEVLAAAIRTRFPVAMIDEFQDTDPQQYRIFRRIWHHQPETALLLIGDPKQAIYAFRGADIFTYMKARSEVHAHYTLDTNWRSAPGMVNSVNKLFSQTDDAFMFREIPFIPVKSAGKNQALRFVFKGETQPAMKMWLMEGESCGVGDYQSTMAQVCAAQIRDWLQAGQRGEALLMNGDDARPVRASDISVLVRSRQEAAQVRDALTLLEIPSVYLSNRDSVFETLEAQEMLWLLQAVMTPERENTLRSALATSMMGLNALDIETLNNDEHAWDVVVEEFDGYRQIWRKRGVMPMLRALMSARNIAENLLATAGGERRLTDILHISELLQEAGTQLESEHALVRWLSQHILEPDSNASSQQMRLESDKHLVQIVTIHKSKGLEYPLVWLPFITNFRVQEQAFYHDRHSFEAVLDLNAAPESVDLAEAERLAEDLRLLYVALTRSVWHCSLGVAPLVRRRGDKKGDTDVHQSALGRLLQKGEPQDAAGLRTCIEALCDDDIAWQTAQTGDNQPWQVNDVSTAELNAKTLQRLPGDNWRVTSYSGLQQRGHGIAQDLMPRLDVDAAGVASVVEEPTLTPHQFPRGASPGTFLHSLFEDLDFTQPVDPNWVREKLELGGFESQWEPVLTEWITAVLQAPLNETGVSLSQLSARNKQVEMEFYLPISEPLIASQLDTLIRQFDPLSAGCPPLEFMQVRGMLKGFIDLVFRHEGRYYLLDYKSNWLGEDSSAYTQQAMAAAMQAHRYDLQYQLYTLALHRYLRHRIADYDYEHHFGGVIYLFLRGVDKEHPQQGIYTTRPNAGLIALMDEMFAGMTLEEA

[5] = Counterscreen for AddAB inhibitors: absorbance-based bacterial cell-based high throughput dose response assay for inhibitors of bacterial viability. [Related pubchem assays (depositor defined):AID435030, AID449728, AID449731, AID488942, AID488955, AID488956]; assay type: functional
[6] = system: Streptococcus; assay: GAS UMAA2166 growth inhibition – luminescence, BacTiterGlo, counter-screen for streptokinase expression inhibitor project, dose response (AID 1915); assay type: functional, organism-based;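 note: potency for reduction of bacterial viability or growth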
[7] = target: Peroxisome proliferator-activated receptor gamma/Nuclear receptor coactivator 3 (Homo sapiens, UniProt P37231); assay: (§1) TR-FRET dose response biochemical High Throughput Screening assay for agonists of the steroid receptor coactivator 3 (SRC-3) recruitment by the peroxisome proliferator-activated receptor gamma (PPAR gamma): non-selective agonists. [Related pubchem assays: 1301 (Confirmation screen.), 1048 (Primary screen.)]; assay type: functional
[8] = system: Streptococcus sp. 'group A'; assay: Streptococcus pyogenes SK(-)GAS viability under kanamycin – luminescence, BacTiterGlo, confirmation, counter-screen for streptokinase expression inhibitor project, dose response (AID 1900); assay type: functional, organism-based
[9] = target: T4, Streptokinase A (Streptococcus pyogenes serotype M1, UniProt P10520); assay: viability-normalized secreted streptokinase activity reduction – plasminogen activation absorbance, OD405, dose response (AID 1914); assay type: functional, Streptococcus pyogenes M1 GAS;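 note: secreted streptokinase activity via plasminogen activation per viability signal from cell pellet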
T4 sequence (P10520 whole entry): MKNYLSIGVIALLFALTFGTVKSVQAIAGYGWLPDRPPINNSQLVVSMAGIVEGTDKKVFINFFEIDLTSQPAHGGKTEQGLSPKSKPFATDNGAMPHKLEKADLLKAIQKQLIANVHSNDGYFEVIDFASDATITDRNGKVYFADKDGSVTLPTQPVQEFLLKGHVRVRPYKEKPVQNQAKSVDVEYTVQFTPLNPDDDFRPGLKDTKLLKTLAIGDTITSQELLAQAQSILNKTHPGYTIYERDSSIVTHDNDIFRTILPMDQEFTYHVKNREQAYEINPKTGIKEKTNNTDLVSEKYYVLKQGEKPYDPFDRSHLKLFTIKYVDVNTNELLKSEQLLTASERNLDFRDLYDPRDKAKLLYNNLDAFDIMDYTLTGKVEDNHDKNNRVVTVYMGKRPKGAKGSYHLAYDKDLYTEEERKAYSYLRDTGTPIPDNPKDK

[10] = target: Peroxisome proliferator-activated receptor gamma/Nuclear receptor coactivator 1 (Homo sapiens, UniProt P37231); assay: as §1, with “1 (SRC-1)” for “3 (SRC-3)”, “assays (depositor defined):AID1300, AID1808, AID504735, AID631]” for “assays: 1301 (Confirmation screen.), 1048 (Primary screen.)]”; assay type: protein assay
Chain of Peroxisome proliferator-activated receptor gamma/Nuclear receptor coactivator 1 (P37231 whole entry): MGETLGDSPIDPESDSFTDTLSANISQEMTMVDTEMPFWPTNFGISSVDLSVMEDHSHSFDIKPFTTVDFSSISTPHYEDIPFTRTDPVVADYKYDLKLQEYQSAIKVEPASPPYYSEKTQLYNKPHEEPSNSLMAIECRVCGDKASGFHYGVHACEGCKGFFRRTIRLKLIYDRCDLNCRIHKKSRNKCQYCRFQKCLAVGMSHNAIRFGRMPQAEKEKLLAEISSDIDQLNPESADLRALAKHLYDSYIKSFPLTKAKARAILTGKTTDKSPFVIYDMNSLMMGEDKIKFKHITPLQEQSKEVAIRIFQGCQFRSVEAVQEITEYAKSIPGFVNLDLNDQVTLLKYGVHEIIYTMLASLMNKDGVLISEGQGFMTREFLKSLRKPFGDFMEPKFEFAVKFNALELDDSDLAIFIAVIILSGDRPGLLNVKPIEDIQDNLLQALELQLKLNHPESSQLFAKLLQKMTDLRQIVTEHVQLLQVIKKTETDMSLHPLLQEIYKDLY
Chain of Peroxisome proliferator-activated receptor gamma/Nuclear receptor coactivator 1 (Q15788 whole entry, further chain): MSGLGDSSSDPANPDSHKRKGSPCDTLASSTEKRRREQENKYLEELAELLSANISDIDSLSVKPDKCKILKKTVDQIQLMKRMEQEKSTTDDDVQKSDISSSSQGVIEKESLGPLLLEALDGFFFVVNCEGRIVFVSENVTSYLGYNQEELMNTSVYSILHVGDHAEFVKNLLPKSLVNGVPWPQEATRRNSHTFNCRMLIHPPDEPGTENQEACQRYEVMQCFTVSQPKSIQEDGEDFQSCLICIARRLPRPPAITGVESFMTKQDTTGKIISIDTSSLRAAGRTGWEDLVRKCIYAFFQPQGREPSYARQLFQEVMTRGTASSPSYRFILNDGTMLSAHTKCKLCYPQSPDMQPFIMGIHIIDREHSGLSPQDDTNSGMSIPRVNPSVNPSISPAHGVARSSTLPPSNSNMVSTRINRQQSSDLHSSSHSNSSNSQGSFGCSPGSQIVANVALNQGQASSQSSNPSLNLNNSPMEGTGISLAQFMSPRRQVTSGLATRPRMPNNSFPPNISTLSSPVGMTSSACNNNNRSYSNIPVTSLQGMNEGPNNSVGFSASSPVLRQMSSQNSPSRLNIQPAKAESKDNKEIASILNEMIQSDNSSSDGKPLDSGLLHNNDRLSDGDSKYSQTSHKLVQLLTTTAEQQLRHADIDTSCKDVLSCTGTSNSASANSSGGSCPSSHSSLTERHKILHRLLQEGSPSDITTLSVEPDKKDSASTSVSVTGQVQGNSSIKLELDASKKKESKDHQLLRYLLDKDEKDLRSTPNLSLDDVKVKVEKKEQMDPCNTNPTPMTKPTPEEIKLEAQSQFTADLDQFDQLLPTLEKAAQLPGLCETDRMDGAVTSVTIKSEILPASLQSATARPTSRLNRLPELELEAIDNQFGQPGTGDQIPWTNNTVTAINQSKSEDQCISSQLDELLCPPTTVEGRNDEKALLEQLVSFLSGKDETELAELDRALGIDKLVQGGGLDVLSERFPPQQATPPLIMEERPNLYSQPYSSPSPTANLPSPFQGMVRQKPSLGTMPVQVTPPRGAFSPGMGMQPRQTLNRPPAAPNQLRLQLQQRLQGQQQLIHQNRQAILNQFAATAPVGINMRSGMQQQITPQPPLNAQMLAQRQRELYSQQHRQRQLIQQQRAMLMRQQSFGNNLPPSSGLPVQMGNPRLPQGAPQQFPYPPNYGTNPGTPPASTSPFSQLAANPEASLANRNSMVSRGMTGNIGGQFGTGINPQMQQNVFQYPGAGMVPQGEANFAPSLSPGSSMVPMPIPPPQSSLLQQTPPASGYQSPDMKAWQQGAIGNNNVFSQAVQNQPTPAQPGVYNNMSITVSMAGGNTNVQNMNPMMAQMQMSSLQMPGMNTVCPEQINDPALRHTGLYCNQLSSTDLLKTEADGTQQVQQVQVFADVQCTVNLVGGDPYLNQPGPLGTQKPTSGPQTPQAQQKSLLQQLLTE

[11] = target: Nonstructural protein 1 (Influenza A virus, UniProt Q194T2); assay type: functional, Influenza A virus (A/California/07/2009(H1N1))
Chain of Nonstructural protein 1 (Q194T2 whole entry): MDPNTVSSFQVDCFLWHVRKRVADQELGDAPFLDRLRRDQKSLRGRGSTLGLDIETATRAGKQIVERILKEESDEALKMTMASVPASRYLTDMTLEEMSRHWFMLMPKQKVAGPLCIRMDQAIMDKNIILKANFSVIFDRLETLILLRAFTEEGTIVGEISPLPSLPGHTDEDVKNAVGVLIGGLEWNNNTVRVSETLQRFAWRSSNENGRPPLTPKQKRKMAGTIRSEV

[12] = target: Peroxisome proliferator-activated receptor gamma/Nuclear receptor coactivator 2 (Homo sapiens, UniProt P37231); assay: TR-FRET dose response biochemical High Throughput Screening assay for agonists of the steroid receptor coactivator 2 (SRC-2) recruitment by the peroxisome proliferator-activated receptor gamma (PPAR gamma): non-selective agonists. [Related pubchem assays: 1297, 1032 ]; assay type: functional
Chain of Peroxisome proliferator-activated receptor gamma/Nuclear receptor coactivator 2 (P37231 whole entry): as the sequence (P37231 whole entry) above
Chain of Peroxisome proliferator-activated receptor gamma/Nuclear receptor coactivator 2 (Q15596 whole entry, further chain): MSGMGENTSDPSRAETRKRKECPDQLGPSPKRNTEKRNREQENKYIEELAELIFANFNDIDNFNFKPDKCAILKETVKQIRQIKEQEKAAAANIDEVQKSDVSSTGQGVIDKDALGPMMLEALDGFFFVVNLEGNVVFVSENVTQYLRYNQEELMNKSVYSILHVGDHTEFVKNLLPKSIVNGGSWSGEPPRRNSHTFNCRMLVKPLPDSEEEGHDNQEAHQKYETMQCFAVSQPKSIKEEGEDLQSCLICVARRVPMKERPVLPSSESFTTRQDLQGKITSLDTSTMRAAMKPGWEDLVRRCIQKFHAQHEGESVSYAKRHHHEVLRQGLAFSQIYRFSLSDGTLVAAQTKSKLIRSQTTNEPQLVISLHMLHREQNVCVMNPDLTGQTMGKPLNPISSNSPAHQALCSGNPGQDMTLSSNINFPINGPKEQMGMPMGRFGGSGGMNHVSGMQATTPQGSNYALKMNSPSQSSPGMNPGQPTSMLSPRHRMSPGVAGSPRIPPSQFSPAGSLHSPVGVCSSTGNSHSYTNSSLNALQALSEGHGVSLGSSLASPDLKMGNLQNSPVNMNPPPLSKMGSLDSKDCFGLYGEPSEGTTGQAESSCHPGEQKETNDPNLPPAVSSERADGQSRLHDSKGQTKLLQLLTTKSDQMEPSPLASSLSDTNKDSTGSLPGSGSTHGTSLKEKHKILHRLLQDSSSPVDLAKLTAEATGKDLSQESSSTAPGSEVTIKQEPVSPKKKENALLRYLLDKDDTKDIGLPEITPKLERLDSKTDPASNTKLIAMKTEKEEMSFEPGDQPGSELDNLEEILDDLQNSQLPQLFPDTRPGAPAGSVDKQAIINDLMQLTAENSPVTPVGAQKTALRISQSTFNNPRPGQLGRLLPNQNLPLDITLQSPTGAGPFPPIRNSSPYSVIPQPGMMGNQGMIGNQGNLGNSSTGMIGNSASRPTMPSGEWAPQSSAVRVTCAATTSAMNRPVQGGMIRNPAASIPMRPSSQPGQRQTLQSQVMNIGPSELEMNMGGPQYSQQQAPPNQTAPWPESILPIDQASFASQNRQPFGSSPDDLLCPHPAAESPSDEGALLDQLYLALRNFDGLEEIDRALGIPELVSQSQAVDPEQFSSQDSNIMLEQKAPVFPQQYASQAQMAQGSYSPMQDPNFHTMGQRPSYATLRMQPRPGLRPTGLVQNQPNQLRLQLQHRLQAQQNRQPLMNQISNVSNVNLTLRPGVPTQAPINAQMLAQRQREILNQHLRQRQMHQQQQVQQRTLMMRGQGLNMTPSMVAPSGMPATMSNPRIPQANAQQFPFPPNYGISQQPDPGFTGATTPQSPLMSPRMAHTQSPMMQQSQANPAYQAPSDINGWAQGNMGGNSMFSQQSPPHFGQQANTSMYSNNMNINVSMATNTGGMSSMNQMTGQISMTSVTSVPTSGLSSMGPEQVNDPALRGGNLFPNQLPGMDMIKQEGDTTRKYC

Compound	IC50 [1]	IC50 [2]	IC50 [3]	also measured
CCOC(=O)C(NC(=O)CCl)(Nc1ccc(C(O)(C(=O)OCC)C(F)(F)F)cc1)C(F)(F)F (stereo not drawn)	> 79.4 µM (inactive)	> 79.4 µM (inactive)	> 79.4 µM (inactive)	
O=C(Nc1ccc2[nH]c(O)nc2c1)c1ccc([N+](=O)[O-])o1				IC50 [4]: > 119 µM (inactive); IC50 [5]: 29 µM (inactive)
O=C(NNC(=O)c1cccc(Br)c1)C(=O)N1CCCCC1	> 79.4 µM (inactive)	> 79.4 µM (inactive)	> 79.4 µM (inactive)	
CCCCC(C(=O)OCC)C(N)Cc1ccc(F)cc1 (stereo not drawn)	> 79.4 µM (inactive)	> 79.4 µM (inactive)	> 79.4 µM (inactive)	
CC12CCC(C(=O)N(CSC(=S)N/N=C\c3ccccc3O)C1=O)C2(C)C (stereo not drawn)				EC50 [6]: 5.29 µM (active); EC50 [7]: 34.9 µM (not active); EC50 [8]: 2.43 µM (active); EC50 [9]: > 150 µM (not active); EC50 [10]: 7.15 µM (active); IC50 [11]: 2.09 µM (active); EC50 [12]: 7.31 µM (active)
